The text below walks through data of patent publication US10758511B2, “Stable analogs of CYP450 lipid metabolites and inhibitors of soluble epoxide hydrolase” (Massachusetts Eye and Ear Infirmary, priority 2015, dated 2020).

≈ marks a conversion by molar mass, not a printed value. Marks after values point to notes of the source that are not given here.

The nature of data set [1]: Formulations of selected inhibitors of sEH (mg/mL). It counts as physicochemical.
A further data set addresses T1, Human sEH (Homo sapiens, UniProt P34913).
T1 sequence (P34913 1-555): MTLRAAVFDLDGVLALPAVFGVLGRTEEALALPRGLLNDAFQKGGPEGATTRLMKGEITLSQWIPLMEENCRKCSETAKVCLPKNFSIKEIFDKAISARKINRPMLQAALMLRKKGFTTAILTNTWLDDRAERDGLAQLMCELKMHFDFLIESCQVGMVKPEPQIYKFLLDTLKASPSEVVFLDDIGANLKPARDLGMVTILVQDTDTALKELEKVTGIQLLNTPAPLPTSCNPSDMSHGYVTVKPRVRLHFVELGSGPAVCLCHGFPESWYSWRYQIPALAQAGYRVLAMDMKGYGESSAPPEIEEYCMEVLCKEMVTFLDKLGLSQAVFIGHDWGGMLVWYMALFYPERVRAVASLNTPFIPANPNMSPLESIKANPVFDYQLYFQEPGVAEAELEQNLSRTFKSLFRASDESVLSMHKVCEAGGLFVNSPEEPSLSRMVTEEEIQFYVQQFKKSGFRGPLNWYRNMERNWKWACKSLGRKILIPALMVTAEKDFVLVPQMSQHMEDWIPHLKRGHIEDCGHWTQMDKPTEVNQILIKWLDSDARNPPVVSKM
In words: sEH inhibition (IC50), fluorescent substrate CMNPC. The settings on record: CMNPC as a substrate; ureas found in Brassicales. It counts as biochemical.

Data set [2] can be described thus: Solubility in sodium phosphate buffer (pH7.4). It counts as physicochemical. The settings on record: pH 7.4, aqueous buffer, Mean ± SD (n = 3).
The next data set deals with T2, Rat sEH (Rattus norvegicus, UniProt P80299).
T2 sequence (P80299 1-554): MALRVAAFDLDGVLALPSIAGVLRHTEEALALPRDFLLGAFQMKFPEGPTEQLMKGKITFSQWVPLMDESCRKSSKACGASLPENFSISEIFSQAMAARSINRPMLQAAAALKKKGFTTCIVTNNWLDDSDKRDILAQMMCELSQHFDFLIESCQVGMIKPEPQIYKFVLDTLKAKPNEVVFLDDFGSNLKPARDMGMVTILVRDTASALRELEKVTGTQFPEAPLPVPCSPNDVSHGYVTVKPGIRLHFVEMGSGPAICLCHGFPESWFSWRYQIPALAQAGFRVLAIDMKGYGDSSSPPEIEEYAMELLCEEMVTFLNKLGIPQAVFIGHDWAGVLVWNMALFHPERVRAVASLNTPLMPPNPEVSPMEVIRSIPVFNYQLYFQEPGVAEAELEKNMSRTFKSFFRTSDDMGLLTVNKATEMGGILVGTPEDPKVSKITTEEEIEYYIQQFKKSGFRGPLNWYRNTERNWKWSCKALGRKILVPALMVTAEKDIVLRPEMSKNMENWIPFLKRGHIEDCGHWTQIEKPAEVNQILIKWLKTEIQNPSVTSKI
Put plainly: sEH inhibition (IC50), fluorescent substrate CMNPC. It counts as biochemical. Conditions: CMNPC as a substrate; ureas found in Brassicales.

The subject of data set [3] is peripheral blood leukocytes (PBLs). In words: Autoperfused microflow chamber assay, leukocyte rolling velocity. It counts as in vivo, mouse. Conditions: chamber coated with ICAM-1 and P-selectin, 50 μg/kg/day i.p., day 3 after CNV induction. Here is the method:
A combination of intercellular adhesion molecule 1 (ICAM-1) and P-selectin (R&D Systems), each at a concentration of 5 μg/mL, was used to coat translucent microchambers (0.4×0.04×50 mm, VitroCom) overnight at 4° C. Biocompatible polyester tubing (PE10; Becton Dickinson) was attached to both ends of each microchamber, and the apparatus was subsequently incubated for 1 hour with 0.1% BSA (Sigma-Aldrich) in order to prevent nonspecific leukocyte interaction with the inner surface of the apparatus. The left jugular vein and right carotid artery in an anesthetized mouse were surgically connected to the free ends of both tubes, thus allowing blood to flow from the right carotid artery and into the microchamber (via the inlet tube), and then into the left jugular vein (via the outlet tube) for recirculation. Blood flow rate through the microchamber was controlled via a screw valve on the inlet tube that could change the tube diameter. For continuous blood pressure measurements, three-way connectors were used to embed microtransducers (Harvard Apparatus) before and after the microchamber. Digitizing the analog output from these microtransducers required an A/D converter (ML785 PowerLab/8SP; ADInstruments) linked to a computer running CHART V7 software (ADInstruments). […] A fixed-stage intravital microscope (Leica) with a 63× objective and a monochromic camera (DFC 360 FX; Leica) were used to observe and record leukocyte rolling along immobilized adhesion molecules. Recordings lasted at least 30 s and incorporated ten different fields of view. Using ImageJ software, leukocyte rolling velocity was calculated based on individual cell displacement along the surface of the chamber over time (i.e., Δd/Δt). Flux was calculated as the mean number of leukocytes interacting with the chamber surface per field of view (i.e., average of 10 independent fields of view).
Autoperfused Microflow Chamber assay was used to assess the impact of 17,18-EEQ and 19,20-EDP on systemic leukocyte recruitment during CNV development. The rolling velocity of peripheral blood leukocytes (PBLs) in the circulating blood was measured 3 days post CNV induction, as this reflects the peak of immune cell infiltration in this model.

A further data set deals with C57BL/6 mice. Put plainly: Laser-induced CNV model (flat-mount, SD-OCT, fluorescein angiography). It counts as in vivo, mouse. The settings on record: for CNV size or severity compared to base line controls: EETs once a day after laser photocoagulation. The text has this: J Med Chem 54(12):4109-4118).
The conditions of data set [4]: sodium phosphate buffer (pH7.4); data from Kitamura et al., (2015); cited from earlier work.
Another data set deals with E-selectin. Put plainly: Real-time PCR of E-selectin mRNA in laser-captured CNV lesions. It counts as in vivo, mouse. The settings on record: 50 μg/kg/day i.p., 7 days post CNV induction. Here is the method: Immediately after enucleation, mouse eyes were placed in optimum cutting temperature (OCT) compound and swiftly frozen. Under RNase-free conditions, eyes were cryosectioned (10 μm thickness per section) and mounted on polyethylene naphthalate glass slides (Leica). After dehydrating with washes of 50, 75, and 100% ethanol, the slides were stained with isolectin B4 at a dilution of 1:50 in 1 mM CaCl2. Laser-capture microdissection (Leica LMD 7000 system) was used to isolate chorioretinal vessels in CNV lesions, which were then placed in RNA-stabilizing buffer (RNeasy Micro Kit; Qiagen). […] Real-time PCR was conducted on a StepOne real-time PCR System (Applied Biosystems) with mouse TaqMan expression assays for the following genes (Applied Biosystems): E-selectin (Mm00441278_m1), kam-1 (Mm00516023_m1), and β-actin (Mm00607939_s1). All data were normalized to β-actin cDNA.
For orientation: Real-time PCR tracks product formation cycle by cycle.

The mark [5] stands for this setting: C57BL/6 mice, 7 d after CNV induction.
[6] abbreviates: C57BL/6 mice, 50 μg/kg/day i.p. once a day, 7 d after CNV induction.

For `CCCCS(=O)(=O)N1CCC(NC(=O)Nc2ccc(C(F)(F)F)cc2)CC1`, in [1], the “Formulation (mg/mL) EtOH” value is recorded as 13 mg/mL, the “Formulation (mg/mL) PEG400” value worked out at 13 mg/mL and the “Formulation (mg/mL) Trioleate” value was found to be 1.25 mg/mL.

Usually IC50 stands for the concentration needed to halve the response being measured. As usually defined, the solubility is the concentration that dissolves in the medium under given conditions. Lower therefore signals a poorly soluble substance. In the case of `COc1cccc(CNC(=O)NCc2cccc(OC)c2)c1` [Compound 3], the IC50 came to 222 nM against Human sEH and 155 nM at Rat sEH. The solubility in [2] came to 101 ± 37 µM (≈ 30.3 µg/mL).

Regarding `COc1cccc(CNC(=O)NCc2ccccc2)c1` [Compound 2], the 50% inhibitory concentration (IC50) on Human sEH worked out at 534 nM; against Rat sEH, 308 nM. In data set [2], this compound returned a solubility of 77 ± 9 µM (≈ 20.8 µg/mL).

For orientation: logP means the decadic logarithm of the partition coefficient of the neutral form, usually between octanol and water. A high value points to a more lipophilic compound. In the case of `CCOCCOCCOCCCCCNC(=O)NC12CC3CC(CC(C3)C1)C2` [AEPU], the log partition coefficient (logP) in the data set “physchem” came out at 2.6.

On to `O=C(NCc1ccccc1)NCc1ccccc1` [Compound 1], for which, in [2], the concentration in solution (solubility) came to 43 ± 5 µM (≈ 10.3 µg/mL). 385 nM corresponded to half-maximal inhibition against Rat sEH (IC50).

As for `O=C(Nc1ccc(C(F)(F)F)cc1)NC1CCC(Oc2ccc(C(=O)O)cc2)CC1` (centres unmarked), in data set [1], the “Formulation (mg/mL) EtOH” value is given as 20 mg/mL, the “Formulation (mg/mL) PEG400” value is on record as 20 mg/mL and the “Formulation (mg/mL) Trioleate” value is reported as 0.625 mg/mL.

On to `CCC1OC1C/C=C\C/C=C\C/C=C\C/C=C\C/C=C\CCC(=O)O` (centres unmarked) [19,20-EDP], for which the “rolling velocity of PBLs” value in [3] (PBS 0.94±0.06) was found to be 1.44±0.12 μm/s.

Turning to `CC(C)C(=O)N1CCC(NC(=O)Nc2ccc(C(F)(F)F)cc2)CC1`, in data set [1], the “Formulation (mg/mL) EtOH” value is 20 mg/mL, the “Formulation (mg/mL) PEG400” value stood at 20 mg/mL and the “Formulation (mg/mL) Trioleate” value was found to be 0.625 mg/mL.

With `COc1ccc(CNC(=O)NCc2ccccc2)cc1` [BMU], the concentration in solution in data set [2] (solubility) came to 9 ± 4 µM (≈ 2.43 µg/mL). For the same compound, the IC50 at Rat sEH came out at 182 nM.

Consider `CCC1OC1C/C=C\C/C=C\C/C=C\C/C=C\CCCC(=O)O` (centres unmarked) [17,18-EEQ, 17,18-epoxyeicosatetraenoic acid], for which the “rolling velocity of PBLs” value in data set [3] (PBS 0.94±0.06) amounted to 1.48±0.16 μm/s.

Take `CCCCC/C=C\C/C=C\CC1OC1C/C=C\CCCC(=O)O` (centres unmarked) [8,9-EET, reference compound]: the “CNV size or severity compared to base line controls” value in the data set on C57BL/6 mice (setting [5]) is reported as “do not affect”. Moreover, the “rolling velocity of PBLs” value in data set [3] (PBS 2.30±0.13) was 1.14±0.15 μm/s.

Take `CNC(=O)C(=O)NCCCC/C=C\CCCCCCCCCC(=O)O` [Compound C21, (Z)-16-(2-(methylamino)-2-oxoacetamido)hexadec-11-enoic acid]: in the data set on C57BL/6 mice (C21 intraperitoneally once a day for 7 days, FIGS. 20A-20C), the “CNV attenuation compared to EEQ administered alone” value was “did not show a significant difference”. Besides, in the data set on C57BL/6 mice (setting [6]), the “CNV size in choroidal flat mounts compared to control vehicle” value is on record as “significantly reduced”, the “CNV size in cross-sectional SD-OCT compared to control vehicle” value is “significantly reduced” and the “vascular leakage in CNV lesions (fluorescein angiography) compared to control vehicle” value is recorded as “significantly reduced”.

In the case of `COc1ccc(CNC(=O)NCc2ccc(OC)cc2)cc1` [MMU], the “Solubility (μM)” value in data set [4] is listed as 11 ± 2^c μM. Moreover, on Rat sEH, the IC50 amounted to 218 nM.

Regarding `CCCCC/C=C\C[C@H]1O[C@H]1C/C=C\C/C=C\CCCC(=O)O` [11,12-EET], in the data set on E-selectin, the “mRNA level of E-selectin in CNV lesions compared to PBS injected controls” value is listed as “significant increase”. In addition, the “CNV size or severity compared to base line controls” value in the data set on C57BL/6 mice (setting [5]) is “do not affect”. The “rolling velocity of PBLs” value in data set [3] (PBS 2.30±0.13) was determined as 1.41±0.45 μm/s.

As for `CCCCCC1OC1C/C=C\C/C=C\C/C=C\CCCC(=O)O` (centres unmarked) [14,15-EET, reference compound], the “CNV size or severity compared to base line controls” value with C57BL/6 mice (setting [5]) is “do not affect”. In addition, in data set [3] (PBS 2.30±0.13), the “rolling velocity of PBLs” value was 1.41±0.11 μm/s.
